Experiment in all cases: NCI-60 cell line screen, 48 h
In assay [1] the test system is HS 578T breast.
Assay [2] relates to SK-OV-3 ovarian.
Assay [3] deals with KM12 colon.
Assay [4] concerns SN12C renal.
Assay [5] relates to SK-MEL-2 melanoma.
Assay [6] has as its system MDA-MB-231 breast.
The subject of assay [7] is DU-145 prostate.
Assay [8] concerns K-562 leukemia.
For assay [9], the system named is IGROV1 ovarian.
Assay [10] concerns NCI-H23 lung.

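Values below derive from 48-hour exposures of cells grown in 96-well plates, with endpoints linearly interpolated between the two concentrations bracketing the appropriate inhibition level. GI50 marks 50% less growth. TGI denotes the concentration required for complete inhibition of growth.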

In the case of `Cc1ccc(C2C3Cc4ccccc4C3=NN2c2ccc(S(=O)(=O)/N=c3\scc(-c4ccccc4)n3-c3ccccc3)cc2)cc1` (configuration not stated), the GI50 in assay [1] is 17.2 µM; in [2] it was 33.1 µM; in assay [3], 20.2 µM; in assay [4], 16.8 µM; in [5], 21.9 µM; in assay [6], 14.9 µM. For the same molecule, the GI50 in [7] was 24.7 µM; in assay [8], 14.9 µM; in [9], 26.5 µM. Further, the TGI in assay [1] was 44.8 µM; in assay [2], over 100 µM; in assay [3] it was 65.2 µM; in assay [4] it was 31.8 µM; in assay [5] it was 52.6 µM; in assay [6], 32.7 µM. Further, the results for the TGI in assay [7], in [8] and in [9] were 81.9 µM, 32.6 µM and over 100 µM, respectively.

Regarding `CCC(=O)Nc1ccc(N2C(=O)/C(=C/c3ccc(OC)cc3)N=C2c2ccccc2)cc1`, the GI50 was 14.1 µM in assay [1]; 3.65 µM in [3]; 13.3 µM in assay [10]; 5.46 µM in [4]; over 50 µM in [5]; 4.31 µM in assay [6]. The GI50 in [7] is 10.4 µM; in assay [8], 5.57 µM; in [9] it was 14.1 µM. Further, the TGI was over 50 µM in [1]; over 50 µM in assay [3]; over 50 µM in assay [10]; 15.3 µM in assay [4]; over 50 µM in assay [5]; 14.5 µM in assay [6]. Further, the TGI in assay [7], in assay [8] and in assay [9] was over 50 µM in each case.

For the molecule `COC(=O)c1cc(-c2ccc(OC)c(OC)c2)[nH]c1N/N=C/c1c(Cl)cccc1Cl`, the GI50 is 0.523 µM in assay [1]; 0.567 µM in assay [2]; 0.4 µM in assay [3]; 0.848 µM in assay [10]; 0.969 µM in [4]; 0.832 µM in [5]. Also, the GI50 in assay [6] was 1.31 µM; in [7], 0.448 µM; in assay [8], 0.46 µM. For the same molecule, the TGI in [1] worked out at 11 µM; in [2], 2.66 µM; in assay [3], 9.69 µM; in assay [10] it was 13 µM; in [4], 18.8 µM; in [5], 7.14 µM. Further, the TGI in assay [6] was 5.03 µM; in assay [7], 1.93 µM; in assay [8], over 100 µM.

`CC(CO)(Nc1ccc([N+](=O)[O-])cc1[N+](=O)[O-])C(=O)O` (configuration not stated): the TGI in [1] was 46.3 µM; in assay [3], over 100 µM; in [10], 62.4 µM; in assay [4] it was 39.4 µM; in assay [5], 55.4 µM; in [6], over 100 µM. The TGI in assay [7] was 48.9 µM; in assay [8], 38.6 µM; in assay [9], 53.7 µM.

Turning to `Cn1ccnc1Oc1ccc(Cl)cc1`, the TGI in [1] was 66.1 µM; in assay [2], over 100 µM; in assay [10] it was 39.5 µM; in [4], 26.4 µM; in [5], 39.5 µM; in assay [6], 37.4 µM. The TGI is 30.7 µM in [7] and 42.3 µM in assay [8].

Regarding `Cc1ccncc1C(N)=O`, the GI50 in [1], in [2], in assay [3], in assay [10], in [4] and in [6] was over 100 µM in each case. Moreover, the GI50 in assay [7], in assay [8] and in assay [9] was over 100 µM each time. The TGI in assay [1], in assay [2], in [3], in assay [10], in assay [4] and in assay [6] was over 100 µM throughout. For the same molecule, the TGI in assay [7], in [8] and in [9] was over 100 µM each time.

In the case of `O=c1c2cc(F)ccc2sc2c(NCCCNCCO)nc3ccccc3c12`, the GI50 in assay [1] was 1.7 µM; in assay [3] it was 1.84 µM; in assay [10], 1.72 µM; in assay [4], 1.67 µM; in assay [5], 1.94 µM; in [6] it was 1.56 µM. Also, the figures for the GI50 in assay [7] and in [9] were 1.72 µM and 1.43 µM, respectively. Also, the TGI in assay [1] was determined as 3.74 µM; in assay [3], 3.52 µM; in assay [10], 3.22 µM; in assay [4], 3.17 µM; in assay [5], 4.01 µM; in [6] it was 3.03 µM. For the same molecule, the TGI in [7] turned out to be 3.13 µM; in assay [9], 2.9 µM.

For the molecule `C[n+]1c2ccccc2nc2c(N)cc(N)cc21`, the GI50 is 3.63 µM in [1]; 25.8 µM in [2]; 13.7 µM in [3]; 5.13 µM in assay [10]; 2.55 µM in [4]; 21.7 µM in [6]. For the same molecule, the values for the GI50 in assay [7], in [8] and in assay [9] were 16 µM, 3.07 µM and 14.4 µM, respectively. Also, the TGI in [1] is 20.6 µM; in [2], over 100 µM; in [3], over 100 µM; in [10], 26.6 µM; in [4] it was 14 µM; in assay [6] it was over 100 µM. Moreover, the TGI was over 100 µM in assay [7], 33.2 µM in assay [8] and 57 µM in [9].

As for `COc1cc(-c2nn(-c3cccc(NC(=O)CCN4CCN(Cc5ccccc5)CC4)c3)cc2-c2ccncc2)ccc1Cl`, the GI50 in assay [1] is 1.02 µM; in assay [2], 4.86 µM; in assay [3], 0.583 µM; in assay [10], 1.73 µM; in [4], 2.13 µM; in assay [5], 1.39 µM. Further, the GI50 was 1.64 µM in assay [6], 1.56 µM in assay [7] and 0.954 µM in assay [9]. In addition, the TGI in assay [1] came to 4.34 µM; in [2], 20.6 µM; in [3], 3.86 µM; in [10] it was 9.26 µM; in assay [4], 20.3 µM; in assay [5], 4.14 µM. Also, the TGI in assay [6] came to 3.71 µM; in [7], 10.9 µM; in [9], 7.88 µM.

With `COc1cc(C(=O)Nc2cc(O)c(CC=C(C)C)c(O)c2)cc2c1O[C@]1(C)CC[C@@H](O)C(C)(C)[C@H]1C2`, the GI50 in [1] was 0.0471 µM; in [2], 0.729 µM; in assay [3], 1.76 µM; in [10], 5.42 µM; in assay [4] it was 8.12 µM; in assay [5], 0.143 µM. In addition, the GI50 in assay [6] was 1.16 µM; in assay [7], 1.87 µM; in assay [9] it was 7.06 µM. Besides, the TGI was 14 µM in assay [1]; 17.3 µM in assay [2]; 12.9 µM in [3]; 35.9 µM in assay [10]; 60.2 µM in assay [4]; 8.21 µM in [5]. Also, the TGI in assay [6] was 4.53 µM; in assay [7], 21.7 µM; in [9], 46.3 µM.

Consider `O=C(NNS(=O)(=O)c1ccc(Cl)cc1Cl)c1cccnc1Nc1ccc(Cl)cc1`, for which the GI50 is 17.8 µM in [1]; 17.1 µM in assay [2]; 13.8 µM in assay [3]; 17.3 µM in assay [10]; 31.4 µM in assay [4]; 18.6 µM in [5]. Further, the GI50 in [6] is 19 µM; in [7], 41.8 µM; in assay [8] it was 12.9 µM. Moreover, the TGI is 41.8 µM in assay [1]; 52.4 µM in [2]; 28.6 µM in [3]; 42.6 µM in assay [10]; over 100 µM in [4]; 42.5 µM in [5]. In addition, the TGI was 50.7 µM in [6], over 100 µM in [7] and 25.6 µM in assay [8].

On to `COc1ccc(-c2[nH]c3ccccc3c2CCNS(=O)(=O)c2ccc(C)cc2)cc1`, for which the TGI in [2], in assay [3], in assay [10], in assay [4], in assay [5] and in assay [8] was over 10 µM throughout. This molecule had a TGI in assay [9] of over 10 µM.

Regarding `O=C(O)c1ccccc1NC(=S)c1ccccc1`, the TGI in assay [1], in assay [2], in assay [3], in assay [10], in assay [4] and in [6] was over 100 µM throughout. Also, the figures for the TGI in [7], in [8] and in assay [9] were over 100 µM, over 100 µM and 98.9 µM, respectively.

Turning to `CC1c2ccccc2CCN1c1ccc(CO)c(Cl)c1` (configuration not stated), the GI50 in assay [1] was 21.9 µM; in [2], 1.61 µM; in assay [3], 22.6 µM; in assay [10], 21.8 µM; in assay [4], 15.3 µM; in [6], 15.5 µM. In addition, the GI50 in [7] was 11.6 µM; in [8] it was 0.385 µM; in [9], 0.0488 µM. The TGI in assay [1] was 70.7 µM; in assay [2], 10.7 µM; in assay [3], over 72.5 µM; in assay [10], over 72.3 µM; in assay [4], over 57 µM; in [6] it was 58.4 µM. Further, the values for the TGI in assay [7], in assay [8] and in assay [9] were over 53 µM, over 100 µM and 0.307 µM, respectively.

Turning to `C[CH2][Hg][S]c1ccccc1C(=O)O`, the GI50 in assay [1] was 2.08 µM; in assay [2], 2.77 µM; in [3], 3.82 µM; in [10], 1.18 µM; in assay [4], 1.31 µM; in [6] it was 1.26 µM. Moreover, the GI50 is 1.83 µM in assay [7] and 1.37 µM in assay [9]. Moreover, the TGI in [1] is over 100 µM; in assay [2] it was 8.21 µM; in assay [3], 13.3 µM; in [10] it was 2.7 µM; in [4] it was 2.61 µM; in assay [6], 2.58 µM. Further, the TGI in [7] came to 3.41 µM; in [9], 4.42 µM.

Take `N#CCCNc1nonc1-c1nc2ccccc2n1CC(=O)c1ccc(NC(=O)[C@@H](N)CCCCN)cc1`: the GI50 in assay [1] is 0.908 µM; in assay [2], 0.0313 µM; in assay [3], 0.0279 µM; in [10] it was 0.0483 µM; in assay [4], 0.0498 µM; in assay [6], 0.0599 µM. The figures for the GI50 in assay [7], in assay [8] and in assay [9] were 0.0323 µM, 0.0322 µM and 0.11 µM, respectively. Further, the TGI was over 100 µM in assay [1]; over 100 µM in [2]; over 100 µM in assay [4]; over 100 µM in [6]; 0.0994 µM in [7]; over 100 µM in assay [8]. In assay [9], this molecule yielded a TGI of over 100 µM.

`Cc1cc(=O)c2c(O)cc3c(c2o1)CC=C(COC1OC(COC2OC(CO)C(O)C(O)C2O)C(O)C(O)C1O)CO3` (configuration not stated): the TGI in assay [2], in assay [3], in assay [10], in assay [4], in [5] and in [8] was over 100 µM each time. Moreover, in assay [9], the TGI is over 100 µM.

Regarding `O=Nc1c(-c2c(O)[nH]c3ncccc23)[nH]c2ccccc12`, the GI50 is 2.71 µM in [1]; 1.32 µM in assay [3]; over 100 µM in [10]; 5.86 µM in assay [4]; 16 µM in assay [6]; over 23.9 µM in assay [7]. Besides, the GI50 in assay [9] is 1.72 µM. Also, the TGI in assay [1], in [3], in [10], in assay [4], in [6] and in assay [7] was over 100 µM each time. Besides, the TGI in assay [8] and in assay [9] was over 100 µM in each case.

On to `O=C1C=C(O)C(=Cc2c(O)cc(O)cc2O)C(O)=C1`, for which the TGI in [2], in [3], in assay [10], in [4], in assay [5] and in assay [8] was over 100 µM throughout. The TGI in [9] is over 100 µM.

(Values after PubChem BioAssay (NCI).)
